Holding throughout (assay type): cell-based
For one assay, the system named is bacterial strain. Put plainly: Activity in vitro, method of dilutions in a liquid medium (overall statement). Conditions: summary of the MIC test on the listed strains. As for the experimental part: (§1) A—Method of Dilutions in a Liquid Medium
(§2) A series of tubes was prepared in which the same quantity of sterile nutritive medium is distributed. Increasing quantities of the product to be studied are distributed in each tube, then each tube is seeded with a bacterial strain. After incubation for 24 hours in an oven at 37° C., the growth inhibition is evaluated by transillumination which allows the minimum inhibitory concentrations (M.I.C) to be determined, expressed in micrograms/cm^3.

The test system of another assay is Staph. aureus 011HT18. Put plainly: MIC, method of dilutions in a liquid medium. Conditions: incubation 24 hours at 37° C. Here is the method:
as §1, §2

The test system of assay [1] is Strepto pneumoniae 030BI2. Put plainly: MIC, method of dilutions in a liquid medium. The conditions noted are these: incubation 24 hours at 37° C. Here is the method:
as §1, §2

Assay [2] concerns Staph. epidermidis 0126042. Put plainly: MIC, method of dilutions in a liquid medium. Conditions: incubation 24 hours at 37° C. Here is the method: as §1, §2
In the next assay the test system is Entero faecalis 02D2UC5. Put plainly: MIC, method of dilutions in a liquid medium. Conditions: incubation 24 hours at 37° C. As for the experimental part:
as §1, §2

Another assay concerns Entero faecium 02D3IP2. As to the kind of experiment: MIC, method of dilutions in a liquid medium. The conditions noted are these: incubation 24 hours at 37° C. As for the experimental part:
as §1, §2

The subject of another assay is Strepto. pyogene 02A1UC1. Put plainly: MIC, method of dilutions in a liquid medium. Conditions: incubation 24 hours at 37° C. As for the experimental part:
as §1, §2

For assay [3], the system named is Staph. Coag. Negative 012HT5. As to the kind of experiment: MIC, method of dilutions in a liquid medium. Conditions: incubation 24 hours at 37° C. As for the experimental part:
as §1, §2

Values after ≈ are worked out from the molar mass of the structure shown.

Consider `C#CCONC(=O)OC1C(O)C(c2ccc3c(O)c(NC(=O)c4ccccc4)c(=O)oc3c2C)OC2(CCCC2)C1OC` (stereo not drawn) [EX. 10, [7R-(7.α.,8.β,9.β,10.α)]-(2-Propynyloxy)-carbamate of 8-Hydroxy-7-[4-hydroxy-8-methyl-2-oxo-3-(benzoylamino)-2H-1-benzopyran-7-yl)-10-methoxy-6-oxaspiro[4,5]decan-9-yl], for which the “activity in vitro (in words)” value in the assay on bacterial strain is reported as “excellent activity”. The MIC result was “≦0.04 μg/ml” against Staph. aureus 011HT18; “≦0.04 μg/ml” in assay [1]; “≦0.04 μg/ml” in assay [2]; 1.2 µg/mL (≈ 2.02 µM) in the assay with Entero faecalis 02D2UC5; 0.63 µg/mL (≈ 1.06 µM) in the assay with Entero faecium 02D3IP2; 0.16 µg/mL (≈ 0.27 µM) in the assay on Strepto. pyogene 02A1UC1. Also, the MIC in assay [3] came out at 0.08 µg/mL (≈ 0.135 µM).
`C#CCONC(=O)OC1CC(c2ccc3c(O)c(NC(=O)C(C)C)c(=O)oc3c2C)OC2(CCCC2)C1OC` (stereo not drawn) [EX. 11, [7R-(7.α.,8β.,9β.,10.α)]-(2-Propynyloxy)-carbamate of 7-[4-Hydroxy-8-methyl-3-[(2-methyl-1-oxo-propyl)amino]-2-oxo-2H-1-benzopyran-7-yl]-10-methoxy-6-oxaspiro[4,5]decan-9-yl]: the “activity in vitro (in words)” value in the assay with bacterial strain is on record as “excellent activity”. The MIC result is “≦0.04 μg/ml” against Staph. aureus 011HT18; “≦0.04 μg/ml” in assay [1]; “≦0.04 μg/ml” in assay [2]; 0.63 µg/mL (≈ 1.16 µM) against Entero faecalis 02D2UC5; 0.32 µg/mL (≈ 0.59 µM) in the assay with Entero faecium 02D3IP2; 0.08 µg/mL (≈ 0.147 µM) in the assay on Strepto. pyogene 02A1UC1. In assay [3], the MIC is 0.15 µg/mL (≈ 0.276 µM).

One may read the MIC as the lowest concentration found to suppress growth. Low readings indicate a more susceptible organism, high ones a less susceptible organism.

Source of the values: patent publication US6579902B1, “Ribose-substituted aromatic amides, method for the production and use thereof as medicaments” (Aventis Pharma S.A., priority 1999, dated 2003).
